In assay [1] the target is CK2 ααββ (Homo sapiens (Human), UniProt P68400). Briefly: CK2 assay (cell-free, 33P-ATP, phosphocellulose filter plate). It is filed as biochemical.
Method: Modulatory activity of compounds described herein was assessed in vitro in cell-free CK2 assays by the following method.
Reactions were maintained for 40 min at 23° C. The reactions were quenched with 100 ul of 0.75% Phosphoric acid, then transferred to and filtered through a Phosphocellulose filter plate (Millipore, MSPH-N6B-50). After washing each well 4 times with 0.75% Phosphoric acid, scintillation fluid (20 uL) was added to each well and the residual radioactivity was measured using a Wallac luminescence counter.
Assay [2] concerns the target recombinant human PIM2 (Homo sapiens (Human), UniProt Q9P1W9). Briefly: PIM-2 assay (33P-ATP filter binding). It is filed as biochemical. Conditions: for IC50: PIM2: IC50 (5 μM ATP), 5 μM ATP; for PIM2: % inh […]: at […] compound.
Method: Test compounds dissolved and diluted in DMSO (2 μl) were added to a reaction mixture comprising 10 μl of 5× Reaction Buffer (40 mM MOPS pH 7.0, 5 mM EDTA), 10 μl of recombinant human PIM2 solution (4 ng PIM-2 dissolved in dilution buffer (20 mM MOPS pH 7.0; EDTA 1 mM; 5% Glycerol; 0.01% Brij 35; 0.1%; 0.1% 2-mercaptoethanol; 1 mg/ml BSA)) and 8 ul of water.
For assay [3], the system named is MDAMB453. Nature of the assay: Cell proliferation assay with Alamar Blue (AB), MDAMB453. Type of assay: cell-based. As to the method:
(§1) A representative cell-proliferation assay protocol using Alamar Blue dye (stored at 4° C., use 20 ul per well) is described hereafter.
(§2) a. Split and trypsinize cells.
(§3) b. Count cells using hemocytometer.
(§4) c. Plate 4,000-5,000 cells per well in 100 μl of medium and seed into a 96-well plate according to the following plate layout. Add cell culture medium only to wells B10 to B12.
(§5) d. Add 100 μl of 2× drug dilution to each well in a concentration shown in the plate layout above. […] Total volume is 200 μl/well.
(§6) e. Incubate four (4) days at 37° C., 5% CO2 in a humidified incubator.
(§7) f. Add […] Alamar Blue reagent to each well.
(§8) g. Incubate for four (4) hours at 37° C., 5% CO2 in a humidified incubator.
(§9) h. Record fluorescence at an excitation wavelength of 544 nm and emission wavelength of 590 nm using a microplate reader.
(§10) In the assays, cells are cultured with a test compound for approximately four days, the dye is then added to the cells and fluorescence of […] dye is detected after approximately four hours. Different types of cells can be utilized in the assays (e.g., HCT-116 human colorectal carcinoma cells, PC-3 human prostatic cancer cells, MDA-MB231 human breast cancer cells, K-562 human chronic myelogenous leukemia (CML) cells, MiaPaca human pancreatic carcinoma cells, MV-4 human acute myeloid leukemia cells, and BxPC3 human pancreatic adenocarcinoma cells).

For assay [4], the system named is BxPC3 human pancreatic adenocarcinoma cells. Briefly: Cell proliferation assay with Alamar Blue (AB), BxPC3. It is filed as cell-based. As to the method: as §1, §2, §3, §4, §5, §6, §7, §8, §9, §10
(In general: Alamar Blue is a resazurin reagent that responds to reducing activity.)

Where [5] appears, read: Homo sapiens, MDA-MB-453, MDAMB453 cells, read-out: AB: MDAMB453.
Setting [6] is: Homo sapiens, BXPC-3, read-out: AB: BxPC3.
Setting [7] is: MDAMB453 cells, read-out: AB: MDAMB453 IC50.

Read-outs that look alike come from different tables or passages of the source.

recombinant human PIM2, sequence (Q9P1W9 whole entry): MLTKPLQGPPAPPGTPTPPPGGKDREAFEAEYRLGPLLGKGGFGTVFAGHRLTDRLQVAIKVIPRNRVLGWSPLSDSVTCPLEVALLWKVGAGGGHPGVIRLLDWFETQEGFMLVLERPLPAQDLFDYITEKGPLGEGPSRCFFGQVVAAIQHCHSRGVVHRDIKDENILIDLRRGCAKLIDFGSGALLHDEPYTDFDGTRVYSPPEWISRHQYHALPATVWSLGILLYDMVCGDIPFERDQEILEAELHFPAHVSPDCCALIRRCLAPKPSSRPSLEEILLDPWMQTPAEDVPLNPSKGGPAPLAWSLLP
CK2 ααββ, sequence (P68400 whole entry): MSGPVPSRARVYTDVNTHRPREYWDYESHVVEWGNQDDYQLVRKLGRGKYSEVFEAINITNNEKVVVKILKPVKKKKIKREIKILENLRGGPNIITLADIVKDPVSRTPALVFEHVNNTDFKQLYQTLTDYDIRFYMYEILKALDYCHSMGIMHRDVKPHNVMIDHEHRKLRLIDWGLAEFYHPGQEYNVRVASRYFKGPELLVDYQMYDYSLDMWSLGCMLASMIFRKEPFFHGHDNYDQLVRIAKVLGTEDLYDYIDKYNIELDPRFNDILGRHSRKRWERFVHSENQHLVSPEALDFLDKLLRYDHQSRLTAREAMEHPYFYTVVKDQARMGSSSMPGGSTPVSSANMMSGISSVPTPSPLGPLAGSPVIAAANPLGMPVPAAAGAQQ
CK2 ααββ, sequence (P67870 whole entry partner): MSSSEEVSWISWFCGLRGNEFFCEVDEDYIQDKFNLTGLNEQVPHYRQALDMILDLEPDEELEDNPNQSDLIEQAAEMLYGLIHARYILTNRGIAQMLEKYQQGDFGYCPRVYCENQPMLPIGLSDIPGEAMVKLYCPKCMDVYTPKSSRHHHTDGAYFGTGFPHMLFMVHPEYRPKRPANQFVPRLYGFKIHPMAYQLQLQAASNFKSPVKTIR

Take `O=C1NC(=O)/C(=C/c2cnn3c(NC4CC4)cc(-c4cccc(OCC5=NCCN5)c4)nc23)N1` [Example K4]: the IC50 was less than 100 nM in assay [1], 1310 nM in assay [2], 1940 nM in assay [3] (setting [5]) and 2580 nM in assay [4] (setting [6]).
As for `O=C1NC(=O)/C(=C/c2cnn3c(NC4CCNCC4)cc(Nc4cccc(Cl)c4)nc23)N1` [Example K5], the IC50 in assay [1] was less than 100 nM; in assay [2], 2450 nM; in assay [3] (setting [5]), 1080 nM; in assay [4] (setting [6]) it was 11000 nM.
For `CC(O)CNc1cc(Nc2cccc(Cl)c2)nc2c(/C=C3\NC(=O)NC3=O)cnn12` (stereo not shown) [Example K6] the same measures were less than 1000 nM, 317 nM, 936 nM and 3160 nM.
The matching figures for `O=C1NC(=O)/C(=C/c2cnn3c(NC4CC4)cc(Nc4ccc(F)cc4Cl)nc23)N1` [Example L1]: less than 10 nM, more than 2500 nM, 500 nM and 1350 nM.
For `O=C1NC(=O)/C(=C/c2cnn3c(NC4CC4)cc(-c4ccc(O)cc4)nc23)N1` [Example L4] the same measures were less than 10 nM, 1470 nM, 1790 nM and 725 nM.
As for `O=C1NC(=O)/C(=C/c2cnn3c(NC4CCN(C(=O)C5CC5)CC4)cc(Nc4cccc(Cl)c4)nc23)N1` [Example L5], the IC50 in assay [1] is less than 10 nM; in assay [2] it was more than 2500 nM; in assay [3] (setting [5]) it was 993 nM; in assay [4] (setting [6]) it was 2400 nM.
The matching figures for `CC(C)(C)CC(=O)Nc1cc(NC2CC2)n2ncc(/C=C3\NC(=O)NC3=O)c2n1` [Example M2]: less than 10 nM, 359 nM, 6680 nM and 4870 nM.
For `O=C1NC(=O)/C(=C/c2cnn3c(NC4CC4)cc(-c4cccc(CN5CCOCC5)c4)nc23)N1` [Example M4] the same measures were less than 10 nM, 1250 nM, more than 30000 nM and 14400 nM.
Turning to `CC(C)(C)C(=O)N1CCC(Nc2cc(Nc3cccc(Cl)c3)nc3c(/C=C4\NC(=O)NC4=O)cnn23)CC1` [Example M5], the IC50 in assay [1] was less than 100 nM; in assay [2], more than 2500 nM; in assay [3] (setting [5]), 874 nM; in assay [4] (setting [6]), 10000 nM.
The matching figures for `COC(=O)Nc1cc(NC2CC2)n2ncc(/C=C3\NC(=O)NC3=O)c2n1` [Example N2]: less than 10 nM, 845 nM, 3040 nM and 9180 nM.
For `O=C1NC(=O)/C(=C/c2cnn3c(NC4CC4)cc(-c4cccc(C(F)(F)F)c4)nc23)N1` [Example N4] the same measures were less than 10 nM, more than 2500 nM, more than 30000 nM and 12500 nM.
With `CN(C)C(=O)N1CCC(Nc2cc(Nc3cccc(Cl)c3)nc3c(/C=C4\NC(=O)NC4=O)cnn23)CC1` [Example N5], the IC50 in assay [1] was less than 100 nM; in assay [2], more than 2500 nM; in assay [3] (setting [5]), 1570 nM; in assay [4] (setting [6]), 17400 nM.
As to `O=C1NC(=O)/C(=C/c2cnn3c(NC4CC4)cc(NC4CCCC4)nc23)N1` [Example O2], the IC50 in assay [1] is less than 10 nM; in assay [2], more than 2500 nM; in assay [3] (setting [5]), 4510 nM; in assay [4] (setting [6]), 10400 nM.
The matching figures for `O=C1NC(=O)/C(=C/c2cnn3c(NC4CC4)cc(-c4ccnc(F)c4)nc23)N1` [Example O4]: less than 10 nM, more than 2500 nM, 17100 nM and 1230 nM.
The matching figures for `COC(=O)CN1CCC(Nc2cc(Nc3cccc(Cl)c3)nc3c(/C=C4\NC(=O)NC4=O)cnn23)CC1` [Example O5]: less than 100 nM, 2410 nM, 1120 nM and 4260 nM.
The matching figures for `O=C1NC(=O)/C(=C/c2cnn3c(NCC(F)(F)F)cc(Nc4cccc(Cl)c4)nc23)N1` [Example O6]: less than 10 nM, more than 2500 nM, 1140 nM and more than 30000 nM.
Take `O=C1NC(=O)/C(=C/c2cnn3c(NC4CC4)cc(N4CC[C@@H](F)C4)nc23)N1` [Example P2]: the IC50 was less than 10 nM in assay [1], 708 nM in assay [2], 660 nM in assay [3] (setting [5]) and 2120 nM in assay [4] (setting [6]).
For `CN(C)c1ccc(-c2cc(NC3CC3)n3ncc(/C=C4\NC(=O)NC4=O)c3n2)cn1` [Example P4] the same measures were less than 10 nM, 75.4 nM, 5280 nM and 549 nM.
For `O=C1NC(=O)/C(=C/c2cnn3c(NC4CCN(CCO)CC4)cc(Nc4cccc(Cl)c4)nc23)N1` [Example P5] the same measures were less than 100 nM, more than 2500 nM, 825 nM and 16500 nM.
The matching figures for `O=C1NC(=O)/C(=C/c2cnn3c(NCC4CC4)cc(NN4CCOCC4)nc23)N1` [Example Q2]: less than 10 nM, 284 nM, 154 nM and 5370 nM.
With `O=C1NC(=O)/C(=C/c2cnn3c(NC4CC4)cc(-c4ccncc4)nc23)N1` [Example Q4], the IC50 is less than 10 nM in assay [1], 256 nM in assay [2], 1070 nM in assay [3] (setting [5]) and 745 nM in assay [4] (setting [6]).
On to `Cc1c(N2CCN(c3ccccn3)CC2)nc2c(C=C3NC(=O)NC3=O)cnn2c1NC1CC1` [Example Q46], for which the IC50 was less than 10 nM in assay [1], more than 30000 nM in assay [3] (setting [7]) and more than 30000 nM in assay [4] (read-out: AB: BxPC3 IC50). Also, in assay [2], the “PIM2: % inh […]” value was determined as 13.151%.
Regarding `NCc1cccc(-c2cc(NC3CC3)n3ncc(/C=C4\NC(=O)NC4=O)c3n2)c1` [Example R4], the IC50 in assay [1] was less than 10 nM; in assay [2], 48.7 nM; in assay [3] (setting [5]), 14900 nM; in assay [4] (setting [6]) it was 10600 nM.
On to `O=C1NC(=O)/C(=C/c2cnn3c(NC4CC4)cc(NN4CCOCC4)nc23)N1` [Example S2], for which the IC50 in assay [1] is less than 10 nM; in assay [2], 1300 nM; in assay [3] (setting [5]) it was 3510 nM; in assay [4] (setting [6]), 3880 nM.
In the case of `O=C1NC(=O)/C(=C/c2cnn3c(NC4CC4)cc(-c4cccc(O)c4)nc23)N1` [Example S3], the IC50 is less than 10 nM in assay [1], 614 nM in assay [2], 330 nM in assay [3] (setting [5]) and 10600 nM in assay [4] (setting [6]).
For `CC(O)c1cccc(-c2cc(NC3CC3)n3ncc(/C=C4\NC(=O)NC4=O)c3n2)c1` (stereo not shown) [Example S4] the same measures were less than 10 nM, more than 2500 nM, 20000 nM and 4610 nM.
Take `O=C1NC(=O)C(=Cc2cnn3c(NC4CC4)cc(Nc4ccc(OCCN5CCOCC5)cc4F)nc23)N1` [Example S42]: the values for the IC50 in assay [1], in assay [3] (setting [7]) and in assay [4] (read-out: AB: BxPC3 IC50) were less than 10 nM, 2740 nM and 5000 nM, respectively. Also, the “PIM2: % inh […]” value in assay [2] is given as 44.49%.
In the case of `O=C1NC(=O)/C(=C/c2cnn3c(NCC4CC4)cc(Nc4cccc(Cl)c4)nc23)N1` [Example T1], the IC50 in assay [1] was less than 10 nM; in assay [2], 509 nM; in assay [3] (setting [5]), 2200 nM; in assay [4] (setting [6]), 12300 nM.
The matching figures for `O=C1NC(=O)/C(=C/c2cnn3c(NC4CC4)cc(NCC4CC4)nc23)N1` [Example T2]: less than 10 nM, 998 nM, 2490 nM and 6900 nM.
With `O=C1NC(=O)/C(=C/c2cnn3c(NC4CC4)cc(-c4cccc(OC(F)(F)F)c4)nc23)N1` [Example T3], the IC50 in assay [1] is less than 10 nM; in assay [2], 891 nM; in assay [3] (setting [5]) it was 402 nM; in assay [4] (setting [6]), 1540 nM.
The matching figures for `CCCS(=O)(=O)Nc1cccc(-c2cc(NC3CC3)n3ncc(/C=C4\NC(=O)NC4=O)c3n2)c1` [Example T4]: less than 100 nM, more than 2500 nM, 1710 nM and 2740 nM.
`CN(C)CCCOc1ccc(Nc2cc(NC3CC3)n3ncc(C=C4NC(=O)NC4=O)c3n2)cc1Cl` [Example T42]: the IC50 was less than 10 nM in assay [1], 2090 nM in assay [3] (setting [7]) and 5330 nM in assay [4] (read-out: AB: BxPC3 IC50). For the same compound, in assay [2], the “PIM2: % inh […]” value came out at 44.33%.
In the case of `C[C@H](Nc1cc(NC2CC2)n2ncc(/C=C3\NC(=O)NC3=O)c2n1)C1CC1` [Example U2], the IC50 in assay [1] is less than 10 nM; in assay [2] it was 766 nM; in assay [3] (setting [5]), 12800 nM; in assay [4] (setting [6]), more than 30000 nM.
The matching figures for `NC(=O)c1cccc(-c2cc(NC3CC3)n3ncc(/C=C4\NC(=O)NC4=O)c3n2)c1` [Example U3]: less than 10 nM, more than 2500 nM, 3740 nM and 3680 nM.

Source of the values: patent publication US9303033B2, “Pyrazolopyrimidines and related heterocycles as CK2 inhibitors” (SENHWA BIOSCIENCES, INC., priority 2009, dated 2016).
